Measured values published in patent publication US8841268B2, “Method and kit for detection of cancer, and therapeutic agent for cancer” (Sapporo Medical University, priority 2008, dated 2014).
Like-named read-outs stand apart in the source and are kept apart here.

Legend:
Type in all cases: cell-based, human
CCNE2 (Cyclin E2) gene = assay: Real-time RT-PCR (TaqMan Gene Expression Assay) of CCNE2 gene in HCT116 cells; settings: miRNA by electroporation, RNA after 48 hours, vs control miRNA, DAC 2 μM, 72 hours vs mock, FIG. 13B
[1] = system: MET (hepatocyte growth factor receptor) gene; assay: Real-time RT-PCR (TaqMan Gene Expression Assay) of MET gene in HCT116 cells; settings: miRNA by electroporation, RNA after 48 hours, vs control miRNA, DAC 2 μM, 72 hours vs mock, FIG. 13B
[2] = system: SFRS2 (splicing factor, arginine/serine-rich 2) gene; assay: Real-time RT-PCR (TaqMan Gene Expression Assay) of SFRS2 gene in HCT116 cells; settings: miRNA by electroporation, RNA after 48 hours, vs control miRNA, DAC 2 μM, 72 hours vs mock, FIG. 13B
[3] = system: (v-myb myeloblastosis viral oncogene homolog) gene; settings: HCT116 cells, DAC 2 μM, 72 hours vs mock, FIG. 13B
HCT116 cell [4] = assay: Microarray analysis of gene expression in HCT116 cell; settings: miRNA by electroporation, RNA after 48 hours, vs control miRNA, DAC 2 μM, 72 hours vs mock, FIG. 13A
Description: Firstly, in order to search for a gene whose expression is decreased by miR-34b/c expression, control miRNA (control miRNA (Ambion)), miR-34b (miR-34b precursor (Ambion)) and miR-34c (miR-34c precursor (Ambion)) were introduced into a HCT116 cell by electroporation, and after 48 hours RNA was extracted and subjected to microarray analysis.

[5] = system: CDK4 (cyclin-dependent kinase 4) gene; assay: Real-time RT-PCR (TaqMan Gene Expression Assay) of CDK4 gene in HCT116 cells; settings: miRNA by electroporation, RNA after 48 hours, vs control miRNA, DAC 2 μM, 72 hours vs mock, FIG. 13B
SFRS2 = assay: Western-blot analysis of SFRS2 protein in HCT116 cell; settings: anti-SFRS2 antibody, vs control miRNA / mock, FIG. 13C
Source text: (§1) Furthermore, for foregoing genes, changes in protein level were verified by western-blot analysis using an anti-MET antibody (MET), anti-CDK4 antibody (CDK4), anti-SFRS2 antibody (SFRS2), and anti-actin antibody as control (actin), as shown in FIG. 13C. […] The result above also indicates a more marked decrease in protein level than in RNA level.

[6] = system: 9 colorectal cancer cell lines (CaCO2, Colo320, DLD1, HCT116, HT29, LoVo, RKO, SW48 and SW480); assay: BTG4 expression by RT-PCR in colorectal cancer cell lines treated with DAC; settings: DAC 2 μM, 72 hours, FIG. 14A
CDK4 = assay: Western-blot analysis of CDK4 protein in HCT116 cell; settings: anti-CDK4 antibody, vs control miRNA / mock, FIG. 13C
Source text: as §1

[7] = system: 9 colorectal cancer cell lines (CaCO2, Colo320, DLD1, HCT116, HT29, LoVo, RKO, SW48 and SW480); assay: Expression analysis of miR-34b and miR-34c in colorectal cancer cell lines with DAC treatment; settings: all 9 colorectal cancer cell lines
Source text: DKO2 cell was used as a control, and U6 snRNA was used as an internal control.
The expression level of miRNA was converted to the ratio of the expression level of each miRNA to that of U6 snRNA (i.e., the expression level of each miRNA/the expression level of U6 snRNA) and analyzed.

HCT116 cell [8] = assay: Expression analysis of miRNAs (TaqMan miRNA Assay, real-time PCR) in HCT116 cell; settings: DAC 2 μM, 72 hours
HCT116 cell [9] = assay: miR-34b/c expression in HCT116 cell treated with DAC and/or ADR; settings: DAC 2 μM, 72 hours, ADR 0.5 μg/ml, 24 hours, FIG. 5A
Source text: U6 snRNA was used as an internal control.

MET = assay: Western-blot analysis of MET protein in HCT116 cell; settings: anti-MET antibody, vs control miRNA / mock, FIG. 13C
Source text: as §1

p21 [10] = settings: p53-knockout HCT116 cell (p53KO); DAC 2 μM, 72 hours; ADR 0.5 μg/ml, 24 hours; FIG. 5C
p53-knockout HCT116 cell = assay: miR-34b/c expression in p53-knockout HCT116 cell treated with DAC and/or ADR; settings: HCT116 cell in which p53 gene has been knocked out; DAC 2 μM, 72 hours; ADR 0.5 μg/ml, 24 hours; FIG. 5B
p53 [11] = settings: HCT116 cell (WT); DAC 2 μM, 72 hours; ADR 0.5 μg/ml, 24 hours; FIG. 5C
p21 [12] = assay: Western-blotting of p21 expression in HCT116 cell (WT); settings: DAC 2 μM, 72 hours, ADR 0.5 μg/ml, 24 hours, FIG. 5C
Source text: The expression of β-actin was confirmed as control, and the expression of p21 gene which is known as a representative target of p53 was similarly confirmed.

p53 [13] = settings: p53-knockout HCT116 cell (p53KO); DAC 2 μM, 72 hours; ADR 0.5 μg/ml, 24 hours; FIG. 5C
[14] = miRNA by electroporation, RNA after 48 hours, vs control miRNA

| Compound | mRNA expression level of CCNE2 gene (CCNE2 (Cyclin E2) gene) | mRNA expression level of MET gene [1] | mRNA expression level of SFRS2 gene [2] | mRNA expression level of MTB gene [3, 14] | gene expression patterns (microarray) (HCT116 cell [4]) | mRNA expression level of CDK4 gene [5] | miR-34b/c expression (HCT116 cell [9]) | further results |
| --- | --- | --- | --- | --- | --- | --- | --- | --- |
| miR-34b: miR-34b precursor (Ambion); matured type sequence UAGGCAGUGUCAUUAGCUGAUUG (SEQ ID NO: 2) (precursor form, further chemistry not given here) | decreased | decreased | decreased | decreased | a group of genes whose expression was decreased | decreased | – | – |
| miR-34c: miR-34c precursor (Ambion); matured type sequence AGGCAGUGUAGUUAGCUGAUUGC (SEQ ID NO: 4) (precursor form, further chemistry not given here) | decreased | decreased | decreased | decreased | a group of genes whose expression was decreased | decreased | – | – |
| Nc1ncn([C@H]2C[C@H](O)[C@@H](CO)O2)c(=O)n1 [DAC, 5-aza-2′-deoxycytidine] | decreased | decreased | decreased | – | also decreased by DAC treatment | decreased | induction of miR-34b/c expression was observed | expression level of SFRS2 protein (SFRS2): decreased; mRNA expression of BTG4 gene [6]: markedly increased (restored); expression level of CDK4 protein (CDK4): decreased; expression of miR-34b ([7]; FIG. 4A): induces the expression; expression of miR-34c ([7]; FIG. 4B): induces the expression; expression of miRNAs (expression level of each miRNA/the expression level of U6 snRNA) (HCT116 cell [8]; 157 miRNAs compared, FIG. 2): induced the expression of 37 miRNAs; expression levels of miRNA34b and miR-34c (HCT116 cell [8]; FIG. 3A): restores their expression; mRNA expression level of MTB gene ([3]; […]): decreased; expression level of MET protein (MET): decreased |
| COc1cccc2c1C(=O)c1c(O)c3c(c(O)c1C2=O)C[C@@](O)(C(=O)CO)C[C@@H]3O[C@H]1C[C@H](N)[C@H](O)[C@H](C)O1 [ADR, adriamycin] | – | – | – | – | – | – | induction of miR-34b/c expression was observed | p21 expression (p21 [10]): neither p53 nor p21 was changed at all; miR-34b/c expression (p53-knockout HCT116 cell): not at all; p53 expression (protein level) (p53 [11]): induced by ADR treatment; expression of p21 gene, a p53 target (p21 [12]): also induced in similar pattern to that of p53; p53 expression (protein level) (p53 [13]): neither p53 nor p21 was changed at all |
